Values of other authors, collected in paper PMC11247654 (ACS Medicinal Chemistry Letters, 2024).

Tests used:
[1] = tested on: MRSA
[2] = neutropenic mouse thigh infection assay

Substance: Leu10-isobactin A
- In vitro activity against MRSA [1]: 0.5 µg/mL
- In vivo activity (active dose) [2]: 3 to 10 mg/kg
